Experimental data from patent US11154563B2, “Immunoproteasome inhibitors” (Principia Biopharma Inc., priority 2017, dated 2021).

Experiments:
[1] = biological target: immunoproteasome LMP7/B5i subunit (Homo sapiens, UniProt P20618+P28062); experiment: Caliper-based proteasome enzymatic activity assay, LMP7; type: biochemical; conditions: human recombinant immunoproteasome 0.3 nM, FAM-peptide substrate 1 μM, 3 h at rt
How it was run: (§1)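 Recombinant human immunoproteasome or constitutive proteasome (0.3 nM) with 1 μM FAM-peptide in 20 mM Hepes pH 7.4, 0.015% SDS, 0.01% BSA; LMP7/β5c ran 3 h at rt and were stopped with 5 uM carfilzomib, LMP2 ran 2 h and was stopped with 6.7 uM ixazomib. Cleaved product quantified by microfluidic separation; IC50 from percent inhibition.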

[2] = biological target: T1, PBMC/LMP7 (Homo sapiens, UniProt P28062); experiment: Inhibition of proteasome activity in cells (Proteasome-Glo), PBMC; type: cell-based; conditions: primary human PBMC, 2 h incubation, Suc-LLVY-aminoluciferin substrate
T1 construct: endogenous in cells; host or cells: primary human PBMC
Method: The cell-based effects of a compound described herein on the immunoproteasome are determined by measuring inhibition of proteasome activity in cells using the Proteasome-Glo™ Cell-Based Reagent (Promega, Madison Wis.). The Proteasome-Glo™ assay contains a specific luminogenic proteasome substrate in a buffer optimized for cell permeabilization, proteasome activity, and luciferase activity. For the chymotrypsin-like activity (LMP7 and […]), the peptide substrate is Suc-LLVY-aminoluciferin (Succinyl-leucine-leucine-valine-tyrosine-aminoluciferin). Cleavage of the substrate by proteasome results in luminescent signal which is proportional to the proteasome activity. The cell line THP-1 (a monocytic leukemia cell line enriched in immunoproteasome), the cell line HT-29 (a colorectal adenocarcinoma cell line enriched in constitutive proteasome), and primary human peripheral blood mononuclear cells (PBMC) are used to assess proteasome activity. Cells are seeded in a 96-well plate at 10,000 cells per well in RPMI 1640 high glucose medium with 10% fetal bovine serum (FBS). Compound dilutions are added to cells starting at a concentration of 5 uM and decreasing in tripling dilutions. The final DMSO concentration is 1%. The concentration range is adjusted as needed for compounds of different potencies. The cells treated with compounds are incubated for 2 h at 37° C. in 5% CO2. At the end of the 2 h incubation period, cells are transferred to white 384 well assay plates. 20 uL of Proteasome-Glo™ Reagent is added to each well and incubated for 10 min at rt. The plate is read in the Analyst HT instrument (Molecular Devices, Sunnyvale, Calif.) using luminescence mode. The percent inhibition of activity is plotted as a function of log compound concentration. The IC50 is then calculated for each compound using Prism software from GraphPad Software Inc. (San Diego, Calif.).

[3] = biological target: immunoproteasome LPM2/β1i subunit (Homo sapiens, UniProt P28065+P40306); experiment: Caliper-based proteasome enzymatic activity assay, LMP2; type: biochemical; conditions: human recombinant immunoproteasome 0.3 nM, FAM-peptide substrate 1 μM, 2 h at rt
Method: A Caliper-based proteasome assay (Caliper Life Sciences, Hopkinton, Mass.) was used to measure inhibition of the immunoproteasome LMP7/B5i subunit, the immunoproteasome LPM2/β1i subunit, and the constitutive proteasome β5c unit for a compound of Formula (I). For LMP7 and β5c, serial dilutions of test compounds were incubated with either human recombinant immunoprotcasome or constitutive proteasome (0.3 nM enzyme) and a carboxyfluorescein (FAM)-labeled peptide substrate FAM-TYETFKSIMKKSPF-NH2 (1 μM) at it for 3 h. The reaction was then terminated with a buffer containing the known proteasome inhibitor carfilzomib at a concentration of 5 uM. For LMP2, serial dilutions of test compounds were incubated with human recombinant immunoproteasome proteasome (0.3 nM enzyme) and a carboxyfluorescein (FAM)-labeled peptide substrate FAM-[…]-NH2 (1 μM) at rt for 2 h. The reaction was then terminated with a buffer containing the known proteasome inhibitor ixazomib at a concentration of 6.7 uM. The reaction buffer was 20 mM Hepes pH 7.4, 0.01% bovine serum albumin, 0.015% SDS, 0.5 mM EDTA, 1%0/DMSO. The peptide cleavage reaction product was quantified on a Caliper LabChip 3000. Percent inhibition was calculated for each compound dilution and the concentration that produced 50% inhibition was calculated. This value is presented as the IC50.

[4] = biological target: constitutive proteasome β5c unit (Homo sapiens, UniProt P20618+P28074); experiment: Caliper-based proteasome enzymatic activity assay, β5c; type: biochemical; conditions: human recombinant constitutive proteasome 0.3 nM, FAM-peptide substrate 1 μM, 3 h at rt; read-out: β5c subunit IC50
How it was run: as §1

[5] = tested on: multiple myeloma cell lines and primary patient tumor cells; conditions: including cells resistant to conventional and novel prior therapies; cited from earlier work
[6] = tested on: Hashimoto's thyroiditis model; conditions: autoantibody-driven model; cited from earlier work
[7] = tested on: murine collagen-induced arthritis; conditions: including reduction of inflammation and bone erosion; cited from earlier work
[8] = tested on: Th1/17 differentiation; conditions: human and mouse; cited from earlier work
[9] = tested on: murine DSS-induced colitis model; conditions: cited from earlier work
[10] = tested on: MRL/lpr lupus model; conditions: cited from earlier work

For `CC(C)C=C(C#N)C(=O)N1CCCC1CCC(=O)N[C@@H](Cc1ccccc1)B(O)O` (single isomer, unassigned) [Example 3], the IC50 [1] was 60 nM, the IC50 [2] was 130 nM and the IC50 [3] was 3430 nM. The IC50 [4] was greater than 5000 nM.

Compound `CC(C)C=C(C#N)C(=O)N1CCCC1CCC(=O)N[C@@H](Cc1ccccc1)B(O)O` (single isomer, unassigned) [Example 4] has an IC50 [1] of 4 nM, an IC50 [2] of 39 nM and an IC50 [3] of 2440 nM. It also gave an IC50 [4] of 637 nM.

With `CC(C)C=C(C#N)C(=O)N1CCCCC1CCC(=O)N[C@@H](Cc1ccccc1)B(O)O` (single isomer, unassigned) [Example 5] the IC50 [1] was 7.6 nM, the IC50 [2] was 23 nM and the IC50 [3] was 448 nM. For the same compound, the IC50 [4] was 1040 nM.

With `CC(C)C=C(C#N)C(=O)N1CCCCC1CCC(=O)N[C@@H](Cc1ccccc1)B(O)O` (single isomer, unassigned) [Example 6] the IC50 [1] was 57 nM, the IC50 [2] was 140 nM and the IC50 [3] was 964 nM. The IC50 [4] was greater than 5000 nM.

Work on `CC(C)C=C(C#N)C(=O)N1CCC[C@@H]1COCCC(=O)N[C@@H](Cc1ccccc1)B(O)O` [Example 1, ((R)-1-(3-(((R)-1-(2-cyano-4-methylpent-2-enoyl)pyrrolidin-2-yl)methoxy)propanamido)-2-phenylethyl)boronic acid] yielded an IC50 [1] of 79 nM, an IC50 [2] of 190 nM and an IC50 [4] of 1460 nM.

In the case of `CC(C)C=C(C#N)C(=O)N1CCCC[C@@H]1COC(=O)N[C@@H](Cc1ccccc1)B(O)O` [Example 2, ((R)-1-(((((R)-1-(2-cyano-4-methylpent-2-enoyl)piperidin-2-yl)methoxy)carbonyl)amino)-2-phenylethyl)boronic acid], the IC50 [1] is reported as 55 nM, the IC50 [2] is reported as 420 nM and the IC50 [3] is reported as greater than 5000 nM. The IC50 [4] was greater than 5000 nM.

With `CC(C)C=C(C#N)C(=O)N1CCC[C@@H]1COC(=O)N[C@@H](Cc1ccccc1)B(O)O` [Example 7, ((R)-1-(((((R)-1-(2-cyano-4-methylpent-2-enoyl)pyrrolidin-2-yl)methoxy)carbonyl)amino)-2-phenylethyl)boronic acid] the IC50 [1] was 2.6 nM, the IC50 [2] was 9.4 nM and the IC50 [3] was greater than 5000 nM. For the same compound, the IC50 [4] was greater than 5000 nM.

Compound `CC(C)(C)C=C(C#N)C(=O)N1CCC[C@@H]1COC(=O)N[C@@H](Cc1ccccc1)B(O)O` [Example 10, ((R)-1-(((((R)-1-(2-cyano-4,4-dimethylpent-2-enoyl)pyrrolidin-2-yl)methoxy)carbonyl)amino)-2-phenylethyl)boronic acid] has an IC50 [1] of 1.8 nM, an IC50 [2] of 7.1 nM and an IC50 [3] greater than 5000 nM. It also gave an IC50 [4] of 3410 nM.

Compound `CC(C)(C)C=C(C#N)C(=O)N1CCCC[C@@H]1COC(=O)N[C@@H](Cc1ccccc1)B(O)O` [Example 15, ((R)-1-(((((R)-1-(2-cyano-4,4-dimethylpent-2-enoyl)piperidin-2-yl)methoxy)carbonyl)amino)-2-phenylethyl)boronic acid] has an IC50 [1] of 5.5 nM, an IC50 [2] of 3.3 nM and an IC50 [3] greater than 5000 nM. It also gave an IC50 [4] of 4190 nM.

`CC(C)(C=C(C#N)C(=O)N1CCCC[C@@H]1COC(=O)N[C@@H](Cc1ccc(F)cc1)B(O)O)N1CCC(F)(F)C1` [Example 82, ((R)-1-(((((R)-1-(2-cyano-4-(3,3-difluoropyrrolidin-1-yl)-4-methylpent-2-enoyl)piperidin-2-yl)methoxy)carbonyl)amino)-2-(4-fluorophenyl)ethyl)boronic acid] gave an IC50 [1] of 1.4 nM, an IC50 [3] greater than 5000 nM and an IC50 [4] of 2150 nM.

Compound `CC(C)(C=C(C#N)C(=O)N1CCCC[C@@H]1COC(=O)N[C@@H](Cc1ccc(C(F)(F)F)cc1)B(O)O)N1CCC(F)(F)C1` [Example 83, ((R)-1-(((((R)-1-(2-cyano-4-(3,3-difluoropyrrolidin-1-yl)-4-methylpent-2-enoyl)piperidin-2-yl)methoxy)carbonyl)amino)-2-(4-(trifluoromethyl)phenyl)ethyl)boronic acid] has an IC50 [1] of 4.4 nM, an IC50 [3] greater than 5000 nM and an IC50 [4] of 1220 nM.

In the case of `CC(C)(C=C(C#N)C(=O)N1CCC[C@]1(C)COC(=O)N[C@@H](Cc1ccccc1)B(O)O)N1CCC(F)(F)C1` [Example 85, ((R)-1-(((((R)-1-(2-cyano-4-(3,3-difluoropyrrolidin-1-yl)-4-methylpent-2-enoyl)-2-methylpyrrolidin-2-yl)methoxy)carbonyl)amino)-2-phenylethyl)boronic acid], the IC50 [1] is reported as 2 nM, the IC50 [3] is reported as greater than 5000 nM and the IC50 [4] is reported as 4890 nM.

In the case of `Cc1ccc(C[C@H](NC(=O)OC[C@H]2COCCN2C(=O)C(C#N)=CC(C)(C)N2CCC(F)(F)C2)B(O)O)cc1` [Example 86, ((R)-1-(((((R)-4-(2-cyano-4-(3,3-difluorpyrrolidin-1-yl)-4-methylpent-2-enoyl)morpholin-3-yl)methoxy)carbonyl)amino)-2-(p-tolyl)ethyl)boronic acid], the IC50 [1] is reported as 2.7 nM, the IC50 [3] is reported as greater than 5000 nM and the IC50 [4] is reported as 566 nM.

`CC(C)(C)/C=C(\C#N)C(=O)N1C[C@H](F)C[C@@H]1COC(=O)N[C@@H](Cc1ccccc1)B(O)O` [Example 90, ((R)-1-(((((2R,4R)-1-((E)-2-cyano-4,4-dimethylpent-2-enoyl)-4-fluoropyrrolidin-2-yl)methoxy)carbonyl)amino)-2-phenylethyl)boronic acid] showed an IC50 [1] of 1 nM, an IC50 [3] of 4500 nM and an IC50 [4] of 1960 nM.

Work on `CC(C)(C)/C=C(\C#N)C(=O)N1C[C@@H](F)C[C@@H]1COC(=O)N[C@@H](Cc1ccccc1)B(O)O` [Example 102, ((R)-1-(((((2R,4S)-1-((E)-2-cyano-4,4-dimethylpent-2-enoyl)-4-fluoropyrrolidin-2-yl)methoxy)carbonyl)amino)-2-phenylethyl)boronic acid] yielded an IC50 [1] of 0.7 nM, an IC50 [3] of 4490 nM and an IC50 [4] of 1130 nM.

For `CC(C)C[C@H](NC(=O)OC[C@H]1CCCCN1C(=O)C(C#N)=CC(C)(C)N1CCC(F)(F)C1)B(O)O` [Example 105, ((R)-1-(((((R)-1-(2-cyano-4-(3,3-difluoropyrrolidin-1-yl)-4-methylpent-2-enoyl)piperidin-2-yl)methoxy)carbonyl)amino)-3-methylbutyl)boronic acid], the IC50 [1] was 2.7 nM, the IC50 [3] was 2160 nM and the IC50 [4] was 1450 nM.

In the case of `CC1=C(C(=O)N[C@H](C)C(=O)N[C@@H](Cc2c[nH]c3ccccc23)C(=O)N[C@@H](Cc2ccccc2)C(=O)[C@@]2(C)CO2)Cc2ccccc21` [PR-924], the “growth of multiple myeloma cells” value [5] is listed as “inhibit growth”.

For `COc1ccc(C[C@H](NC(=O)[C@H](C)NC(=O)CN2CCOCC2)C(=O)N[C@@H](Cc2ccccc2)C(=O)[C@@]2(C)CO2)cc1` [PR-957], the “efficacy in Hashimoto's thyroiditis model” value [6] is given as “efficacious”, the “disease activity in collagen-induced arthritis” value [7] is given as “significantly inhibit disease activity” and the “block of Th1/17 differentiation” value [8] is given as “potently block”. The “inflammation and tissue destruction” value [9] was “reduced inflammation and tissue destruction”, the disease progression [10] was “prevented disease progression” and the “plasma cell numbers and anti-dsDNA IgG levels” value [10] was “reduced plasma cell numbers and anti-dsDNA IgG levels”.
